According to patent US20240226120A1 (priority 2020, published 2024):
“And” between values parts separate entries of the source, which are not always exact repeats. Equal values may be shown once.

Tests used:
[1] = tested on: HEK293 (human embryonic kidney) cells expressing the viral Orf10 protein; format: cell-based
[2] = tested on: HEK293 (human embryonic kidney) cells transfected with plasmid expressing M protein; experiment: Apoptosis assay (pSIVA early, propidium iodide late), M protein; format: cell-based
Excerpt: (§1) 2. […] These transfections are done in duplicate.

Type I interferons = experiment: Interferon types after CBD treatment, summary over transfections; format: cell-based, human; details: summary statement, transfection not specified
[3] = tested on: HEK293 (human embryonic kidney) cells expressing the viral Orf8 protein; format: cell-based
CB2 receptor = CB2 receptor (Homo sapiens, UniProt P34972); details: cited from earlier work
normal cells = experiment: Inhouse work on cell death, normal cells (unpublished data); format: cell-based
[4] = tested on: TNFα, IL-6, IL-4, IL-13, IL-10, and IL-5; details: asthma induced animals treated with Cannabidiol vs asthma induced animals; cited from earlier work
[5] = tested on: metabolically dysregulated cells; experiment: Inhouse work on cell death, metabolically dysregulated cells (unpublished data); format: cell-based
HT22 hippocampal neurons = details: 5 μM CBD, oxygen-glucose deprivation; cited from earlier work
[6] = tested on: HEK293 (human embryonic kidney) cells transfected with plasmid expressing viral protein ORF8; experiment: Apoptosis assay (pSIVA early, propidium iodide late), ORF8; format: cell-based; details: ORF8, 24 hours
Excerpt: as §1

[7] = tested on: HEK293 (human embryonic kidney) cells transfected with control plasmid pCMV-3Tag-3A; experiment: Apoptosis assay (pSIVA early, propidium iodide late), control plasmid; format: cell-based; details: 24 hours, normalized to crystal violet
Excerpt: as §1

[8] = tested on: HEK293 (human embryonic kidney) cells expressing the viral M protein; experiment: BrdU incorporation colorimetric ELISA, cells expressing viral M protein; format: cell-based; details: 1 μM, 24 hours, not normalized to cell number (FIG. 5)
[9] = tested on: interferon and interferon-induced antiviral effector gene expression in cells expressing M-protein; experiment: qPCR of interferons and effector gene expression, M-protein; format: cell-based, human

CB2 receptor, sequence (P34972 whole entry): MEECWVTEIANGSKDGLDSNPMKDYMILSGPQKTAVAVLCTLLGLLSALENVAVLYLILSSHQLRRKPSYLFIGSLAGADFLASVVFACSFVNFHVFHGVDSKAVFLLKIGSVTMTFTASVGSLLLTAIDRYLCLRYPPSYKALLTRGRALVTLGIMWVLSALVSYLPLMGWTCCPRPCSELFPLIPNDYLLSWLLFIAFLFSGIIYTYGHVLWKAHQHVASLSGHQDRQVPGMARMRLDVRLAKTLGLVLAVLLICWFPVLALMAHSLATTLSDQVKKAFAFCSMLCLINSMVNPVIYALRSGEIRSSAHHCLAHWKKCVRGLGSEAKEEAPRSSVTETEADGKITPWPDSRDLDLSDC

Q: Which “mean BrdU incorporation lower than in cells expressing Orf10 but untreated with cannabinoids” value [1] does the source give for `C=C(C)[C@@H]1CCC(C)=C[C@H]1c1c(O)cc(CCCCC)cc1O` [Cannabidiol, 2-[(1R,6R)-3-Methyl-6-(1-methylethenyl)-2-cyclohexen-1-yl]-5-pentyl-1,3-benzenediol] here?
A: 30.44%

Q: And the “early apoptosis (pSIVA)” value ([2]; relative to M protein cells treated only with vehicle (FIG. 15A))?
A: significantly elevated

Q: And the “late apoptosis (propidium iodide)” value ([2]; relative to M protein cells treated only with vehicle (FIG. 15B))?
A: significantly elevated

Q: What about the “change in Type I interferons as a result of CBD treatment” value (Type I interferons) of the same molecule?
A: not much change

Q: What about the “mean BrdU incorporation lower than in cells expressing Orf8 but untreated with cannabinoids” value [3] of the same molecule?
A: 37.28% and 43.52%

Q: What about the “binding to CB2 receptor” value (CB2 receptor) of the same molecule?
A: very weakly

Q: And the cell death (normal cells)?
A: no effect

Q: What about the “levels of all cytokines (TNFα, IL-6, IL-4, IL-13, IL-10, IL-5)” value [4] of the same molecule?
A: reduced significantly

Q: And the cell death [5]?
A: decreases cell death

Q: What about the “apoptosis and oxidative stress” value (HT22 hippocampal neurons) of the same molecule?
A: significantly attenuated

Q: And the “early apoptosis (pSIVA)” value ([6]; vs vehicle-treated ORF8 cells and vs Cannabidiol-treated control vector cells (FIG. 8A))?
A: significant increases

Q: And the “late apoptosis (propidium iodide)” value ([6]; vs vehicle-treated ORF8 cells and vs Cannabidiol-treated control vector cells (FIG. 8B))?
A: significant increases

Q: What about the “early apoptosis (pSIVA)” value [7] of the same molecule?
A: do not show any significant increase

Q: And the “late apoptosis (propidium iodide)” value [7]?
A: do not show any significant increase

Q: What about the “early apoptosis (pSIVA)” value ([7]; listed as CBD) of the same molecule?
A: did not alter

Q: What about the “late apoptosis (propidium iodide)” value ([7]; listed as CBD) of the same molecule?
A: did not alter

Q: And the “mean BrdU incorporation lower than in cells expressing M protein but untreated with cannabinoids” value [8]?
A: 37.28%

Q: What about the OAS1 gene expression ([9]; M protein, 1 μM CBD vs vehicle-treated cells, 24 hours (FIG. 18)) of the same molecule?
A: significantly greater expression

Q: What about the “INF-lambda 1 expression” value ([9]; M-protein, 1 μM CBD, 24 hours (FIG. 16A)) of the same molecule?
A: induced

Q: What about the “INF-lambda 2/3 expression” value ([9]; M-protein, 1 μM CBD, 24 hours (FIG. 16B)) of the same molecule?
A: induced

Q: And the “IFIT1 augmentation compared with cells expressing control plasmid” value ([9]; M-protein, 1 μM CBD, 24 hours (FIG. 19))?
A: lower

Q: What about the Mx1 gene expression ([9]; M-protein, 1 μM CBD, 24 hours, vs Cannabidiol-treated cells expressing only control plasmid (FIG. 17)) of the same molecule?
A: significantly greater extent

Q: With `CCCc1cc(O)c2c(c1)OC(C)(C)[C@@H]1CC=C(C)C[C@@H]21` [delta 8-tetrahydrocannabivarin] as the molecule, how does the “BrdU incorporation relative to untreated cells” value [1] read?
A: less reduction
